Measurements reported in US20040116522A1, “Medicinal solutions” (priority 2001, published 2004).

How the values were obtained:
[1] = Serum drug concentration after subcutaneous implantation of the minipump of Example 6; assay type: in vivo; conditions: from s.c. minipump of Example 6 in male SD rats
Description: The subcutaneous implantation type minipump prepared in Example 6 was subcutaneously implanted in the back of 7-week-old male SD rats. After a predetermined time after the implantation, blood was drawn from the tail vein of the rats, and serum was separated.

[2] = cited from earlier work

Row | Period of sustained release [1] [days] | SMILES | pKa [2]
1 | 21 | CONC(=O)Nc1ccc(-c2sc3c(c2CN(C)Cc2ccccc2)c(=O)n(-c2ccccc2)c(=O)n3Cc2c(F)cccc2F)cc1 [Reference Example 7, 5-(N-Benzyl-N-methylaminomethyl)-1-(2,6-difluorobenzyl)-6-[4-(3-methoxyureido)phenyl]-3-phenylthieno[2,3-d]pyrimidine-2,4(1H,3H)-dione] | –
2 | – | O=C(O)c1cc2ccccc2cc1O [3-hydroxy-2-naphthoic acid] | 2.708
